Measured values published in paper PMC6528642, “Myo‐inositol‐1‐phosphate synthase (Ino‐1) functions as a protection mechanism in Corynebacterium glutamicum under oxidative stress” (MicrobiologyOpen, 2018).

Molecular target: T1, Ino-1 (Corynebacterium glutamicum, UniProt Q8NLE6)
T1 construct: His6-tagged (pXMJ19-His6-ino-1), homologous expression in C. glutamicum delta-ino-1, Ni-NTA
Experiment: intrinsic protein fluorescence quenching (Ex […] nm, Em […] nm)
Type: binding
Settings: read-out: apparent K D

T1 sequence (Q8NLE6 whole entry): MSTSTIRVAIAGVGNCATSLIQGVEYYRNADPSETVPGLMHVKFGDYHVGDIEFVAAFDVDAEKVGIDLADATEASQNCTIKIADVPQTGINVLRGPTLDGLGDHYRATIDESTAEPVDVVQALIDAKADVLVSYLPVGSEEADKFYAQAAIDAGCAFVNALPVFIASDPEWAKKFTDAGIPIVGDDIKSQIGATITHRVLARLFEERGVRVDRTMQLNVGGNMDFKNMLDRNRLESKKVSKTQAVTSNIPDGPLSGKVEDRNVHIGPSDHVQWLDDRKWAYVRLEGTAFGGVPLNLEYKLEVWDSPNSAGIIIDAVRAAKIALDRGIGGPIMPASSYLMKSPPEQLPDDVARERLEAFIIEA

Kd: 4.7 ± 0.8 µM
SMILES: NC(=O)c1ccc[n+]([C@@H]2O[C@H](COP(=O)(O)OP(=O)(O)OC[C@H]3O[C@@H](n4cnc5c(N)ncnc54)[C@H](O)[C@@H]3O)[C@@H](O)[C@H]2O)c1 [NAD^+]
